Drawing on ChEMBL document CHEMBL1135304, “Benzimidazole-based fXa inhibitors with improved thrombin and trypsin selectivity” (Bioorg Med Chem Lett, 2002), this text covers Ki for 16 compounds.

One test addresses Coagulation factor X (Homo sapiens, UniProt P00742). The experiment in a line: Tested in vitro for the inhibitory potency against Coagulation factor Xa.
For a further test, the target named is Serine protease 1 (Homo sapiens, UniProt P07477). The experiment in a line: Tested in vitro for the selectivity against trypsin (Trp).
For a further test, the target named is Prothrombin (Homo sapiens, UniProt P00734). The experiment in a line: Tested in vitro for the selectivity against thrombin (IIa).

Chain of Serine protease 1 (P07477 whole entry): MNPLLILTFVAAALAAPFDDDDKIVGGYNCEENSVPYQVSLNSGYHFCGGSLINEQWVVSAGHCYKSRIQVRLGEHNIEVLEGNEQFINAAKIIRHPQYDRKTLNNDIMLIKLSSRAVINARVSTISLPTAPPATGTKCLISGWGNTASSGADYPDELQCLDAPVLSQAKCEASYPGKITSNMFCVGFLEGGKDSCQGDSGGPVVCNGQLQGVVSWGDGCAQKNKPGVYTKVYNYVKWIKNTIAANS
Chain of Coagulation factor X (P00742 41-179 limits assumed): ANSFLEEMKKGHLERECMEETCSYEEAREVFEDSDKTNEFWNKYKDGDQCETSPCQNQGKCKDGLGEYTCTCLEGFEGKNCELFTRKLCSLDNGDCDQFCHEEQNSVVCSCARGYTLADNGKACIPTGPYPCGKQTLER
Chain of Coagulation factor X (P00742 235-488 limits assumed): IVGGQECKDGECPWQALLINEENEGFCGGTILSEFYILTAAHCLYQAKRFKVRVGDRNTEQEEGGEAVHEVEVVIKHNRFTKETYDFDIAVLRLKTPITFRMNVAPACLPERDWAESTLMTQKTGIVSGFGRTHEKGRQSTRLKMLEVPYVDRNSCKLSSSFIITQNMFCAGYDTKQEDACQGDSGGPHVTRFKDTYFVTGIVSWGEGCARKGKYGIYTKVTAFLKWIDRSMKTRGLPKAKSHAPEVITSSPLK

Usually Ki stands for the equilibrium dissociation constant of an inhibitor or competing ligand from its target. On to `CCc1nc2c(N(C)C)c(OC3CCN(C(C)=N)CC3)ccc2n1Cc1ccc2ccc(C(=N)N)cc2c1`, for which the Ki was 5 nM on Coagulation factor X, 10 nM at Serine protease 1 and > 5000 nM at Prothrombin.

For the compound `CCc1nc2ccc(OC3CCN(C(C)=N)CC3)cc2n1Cc1ccc(-c2cccc(C(=N)N)c2)cc1`, the results for the inhibition constant Ki on Coagulation factor X, at Serine protease 1 and at Prothrombin were 2.2 nM, 73 nM and 770 nM, respectively.

In the case of `CCc1nc2cc(OC3CCN(C(C)=N)CC3)ccc2n1Cc1ccc2ccc(C(=N)N)cc2c1`, the figures for the Ki at Serine protease 1 and at Prothrombin were 5 nM and 2000 nM, respectively.

For the compound `CCc1nc2cc(OC3CCN(C(C)=N)CC3)ccc2n1Cc1ccc(-c2ccc(C(=N)N)cc2)cc1`, the values for the inhibition constant (Ki) on Coagulation factor X, on Serine protease 1 and on Prothrombin were 670 nM, 150 nM and 1500 nM, respectively.

For `CCc1nc2c([N+](=O)[O-])c(OC3CCN(C(C)=N)CC3)ccc2n1Cc1ccc2ccc(C(=N)N)cc2c1`, the inhibitory constant (Ki) came to 0.1 nM on Coagulation factor X, 5 nM on Serine protease 1 and 3000 nM at Prothrombin.

For `CCc1nc2ccc(OC3CCN(C(C)=N)CC3)cc2n1Cc1ccc(-c2ccc(C(=N)N)cc2)cc1`, the Ki at Coagulation factor X came out at 180 nM; at Serine protease 1 it was 91 nM; on Prothrombin, 22 nM.

For the compound `CC(=N)N1CCC(Oc2ccc3c(nc(C)n3Cc3ccc4ccc(C(=N)N)cc4c3)c2[N+](=O)[O-])CC1`, the figures for the Ki on Serine protease 1 and on Prothrombin were 3 nM and > 5000 nM, respectively.

Turning to `CCc1nc2cc(OC3CCN(C(C)=N)CC3)ccc2n1Cc1cccc(-c2cccc(C(=N)N)c2)c1`, the Ki at Serine protease 1 was determined as 67 nM; at Prothrombin, 1120 nM.

Regarding `CCc1nc2cc(OC3CCN(C(C)=N)CC3)ccc2n1Cc1cccc(-c2ccc(C(=N)N)cc2)c1`, the figures for the Ki at Coagulation factor X, at Serine protease 1 and at Prothrombin were 260 nM, 690 nM and > 5000 nM, respectively.

In the case of `CCc1nc2c(N)c(OC3CCN(C(C)=N)CC3)ccc2n1Cc1ccc2ccc(C(=N)N)cc2c1`, the Ki at Coagulation factor X was 8 nM; at Serine protease 1, 24 nM; at Prothrombin it was 3500 nM.

For `CCc1nc2ccc(OC3CCN(C(C)=N)CC3)cc2n1Cc1cccc(-c2ccc(C(=N)N)cc2)c1`, the Ki on Coagulation factor X is 150 nM; on Serine protease 1, 430 nM; on Prothrombin, 3600 nM.

For `CCc1nc2c(NC(C)=O)c(OC3CCN(C(C)=N)CC3)ccc2n1Cc1ccc2ccc(C(=N)N)cc2c1`, the Ki at Coagulation factor X is 50 nM; on Serine protease 1, 25 nM; on Prothrombin it was > 5000 nM.

Take `CCc1nc2c(N(CC(=O)O)CC(=O)O)c(OC3CCN(C(C)=N)CC3)ccc2n1Cc1ccc2ccc(C(=N)N)cc2c1`: the values for the Ki on Coagulation factor X, at Serine protease 1 and on Prothrombin were 50 nM, 15 nM and > 5000 nM, respectively.

Regarding `CCc1nc2ccc(OC3CCN(C(C)=N)CC3)cc2n1Cc1cccc(-c2cccc(C(=N)N)c2)c1`, the Ki on Coagulation factor X amounted to 34 nM; on Serine protease 1, 190 nM; on Prothrombin, 190 nM.

On to `CC(=N)N1CCC(Oc2ccc3c(nc(C(C)C)n3Cc3ccc4ccc(C(=N)N)cc4c3)c2[N+](=O)[O-])CC1`, for which the Ki at Coagulation factor X is 0.2 nM; at Serine protease 1, 3 nM; at Prothrombin, > 5000 nM.

Take `CCc1nc2cc(OC3CCN(C(C)=N)CC3)ccc2n1Cc1ccc(-c2cccc(C(=N)N)c2)cc1`: the Ki is 17 nM on Coagulation factor X, 140 nM on Serine protease 1 and 210 nM on Prothrombin.
